The values that follow come from patent US20230047313A1, “TREATING HEART DISEASE IN MUSCULAR DYSTROPHY PATIENTS” (Children`s Medical Center Corporation, priority 2019, published 2023).

“Also recorded” adds a separate entry of the source.

Format in all cases: in vivo, mouse
The subject of one assay is CIP-KO/mdx dko mice. Nature of the assay: Oral gavage of Nox4 inhibitor in CIP-KO/mdx dko mice, cardiac function by echocardiography. The source says:
(§1) Nox4 inhibitor GKT 137831 was purchased from MilliporeSigma and dissolved in corn oil. Male mutation mice for both CIP and dystrophin genes (CIP-KO/mdx dko) were divided into four groups: • 1) group young control (3-month old mouse with corn oil); • 2) group young inhibitor (3-month old mouse with nox4 inhibitor); • 3) group old control (5-month old mouse with corn oil); • 4) group Old inhibitor (5-month old mouse with nox4 inhibitor) Male mutation mice for utrophin and dystrophin (c) were divided into two groups: • 1) group C: control (3-month old mouse with corn oil); • 2) group I: inhibitor (3-month old mouse with nox4 inhibitor); For all the animals in the inhibitor treatment group, the Nox4 Inhibitor (GKT137831 (SIGMA) diluted 1:100 in corn oil) was applied at the dosage of 60 mg/kg/day daily; control group was treated with corn oil only. Cardiac function was monitored using echocardiography before (pre-) and after Nox4 Inhibitor treatment at indicated times (weeks or months) and was presented as EF (ejection fraction) or FS % (fractional shortening), respectively. Utrn/mdx dko mice were sacrificed after final echocardiography measurement after 2 months. Histology was performed in the heart tissues and the expression of cardiac genes and fibronectin, a molecular marker for fibrosis, measured using real-time qPCR.

The subject of assay [1] is Utrn/mdx dko mice. Nature of the assay: Oral gavage of Nox4 inhibitor in Utrn/mdx dko mice, cardiac function by echocardiography. The settings on record: 60 mg/kg/day daily, 2, 4 and 8 weeks, both younger and older mice. Here is the method: Nox4 inhibitor GKT 137831 was purchased from MilliporeSigma and dissolved in corn oil. […] Cardiac function was monitored using echocardiography before (pre-) and after Nox4 Inhibitor treatment at indicated times (weeks or months) and was presented as EF (ejection fraction) or FS % (fractional shortening), respectively. Utrn/mdx dko mice were sacrificed after final echocardiography measurement after 2 months. Histology was performed in the heart tissues and the expression of cardiac genes and fibronectin, a molecular marker for fibrosis, measured using real-time qPCR.

Assay [2] relates to Utrn/mdx dko mice. As to the kind of experiment: Histology (Fast green/Sirius red staining) of heart sections of Utrn/mdx dko mice after Nox4 inhibitor treatment. The settings on record: 8 weeks after treatment, 60 mg/kg/day.
Source text: as §1, with “Male” for “Nox4 inhibitor GKT 137831 was purchased from MilliporeSigma and dissolved in corn oil. Male”

In assay [3] the test system is Utrn/mdx dko mice. As to the kind of experiment: Quantitative real time PCR of fibronectin in hearts of Utrn/mdx dko mice after Nox4 inhibitor treatment. As to conditions: 8 weeks after treatment, 60 mg/kg/day.
Source text: as §1, with “Male” for “Nox4 inhibitor GKT 137831 was purchased from MilliporeSigma and dissolved in corn oil. Male”

Turning to `CN(C)c1cccc(-c2c3c(=O)n(-c4ccccc4Cl)[nH]c3cc(=O)n2C)c1` [GKT137831], in the assay on CIP-KO/mdx dko mice (CIP-KO:mdx mice, 60 mg/kg/day daily, both younger (start 3 months old) and older (start 5 months old) mice), the “left ventricle dilation (LVID), echocardiography” value was “reduced the left ventricle dilation (LVID)”. In addition, in the assay on CIP-KO/mdx dko mice (CIP-KO:mdx mice, 60 mg/kg/day daily, both younger (start 3 months old) and older (start 5 months old) mice, 60 mg/kg/day), the “cardiac function (Ejection Fraction, EF), echocardiography” value is listed as “preserved cardiac function; also recorded: improves cardiac function”. For the same compound, the cardiac fibrosis entry with CIP-KO/mdx dko mice (mdx/CIP-KO mice as worded in the summary sentence, 60 mg/kg/day daily) is recorded as “reduces cardiac fibrosis”. For the same compound, in the assay on CIP-KO/mdx dko mice (mdx/CIP-KO mice, 60 mg/kg/day daily), the dystrophic cardiomyopathy entry was “potently ameliorated dystrophic cardiomyopathy”. In addition, in the assay on CIP-KO/mdx dko mice (mdx/CIP-KO mice, 60 mg/kg/day daily oral gavage, 60 mg/kg/day), the “development of heart failure” value is “preventing the development of heart failure; also recorded: potently prevents the development of heart failure”. In the assay with Utrn/mdx dko mice [1], the “cardiac function (Ejection Fraction, EF; Fractional Shortening, FS %), echocardiography” value was “preserved cardiac function” and the “left ventricle dilation (LVID), echocardiography” value is listed as “reduced the left ventricle dilation (LVID)”. For the same compound, in the assay on Utrn/mdx dko mice [2], the “formation of cardiac fibrosis and scars, Fast green/Sirius red staining” value is “decreased the formation of cardiac fibrosis and the formation of scars”; the “size of the left ventricle dimension, histological analysis” value is given as “reduced the size of the left ventricle dimension”. In addition, the “fibronectin expression in the hearts, qPCR” value with Utrn/mdx dko mice [3] is “reduced fibronectin expression”.
